Results from patent US20220401514A1, “ANTIMICROBIAL, BACTERIOPHAGE-DERIVED POLYPEPTIDES AND THEIR USE AGAINST GRAM-NEGATIVE AND ACID-FAST BACTERIA” (CONTRAFECT CORPORATION, priority 2019, published 2022).
Where two headings read alike, the source gives them in different places. Ends that are not written are not given here.

Key:
[1] = test system: P. aeruginosa (CFS 1292); assay: microbe, parasite or virus in culture; type: cell-based, Pseudomonas aeruginosa
[2] = Stability assessment in 100% CAA; type: in vitro ADME; set-up: unit not given beside the values
Experimental: Stability was assessed after incubation in 100% human serum at 37° C. after 10 minutes, 1 hour, and 2 hours.
Stability assessment was further conducted in 100% CAA and rabbit serum using the same methodology discussed above.

[3] = test system: M. intracellulare; assay: 45 hr MIC against M. intracellulare (NTM); type: cell-based, Mycobacterium intracellulare; conditions: M. intracellulare (Cuttino and McCabe) Runyon ATCC 13950
[4] = test system: carbapenem-resistant P. aeruginosa clinical isolate CFS-1292; assay: MIC by modified CLSI broth microdilution against P. aeruginosa CFS-1292 (CAA, CAA + human serum); type: cell-based, Pseudomonas aeruginosa; conditions: for MIC (μg/mL) against CFS-1292 in 100% CAA (1st run/2nd run): 1st run or single value
[5] = test system: M. smegmatis; assay: 45 hr MIC against M. smegmatis (NTM), Mueller Hinton broth; type: cell-based, Mycobacterium smegmatis
[6] = test system: M. fortuitum; assay: 45 hr MIC against M. fortuitum (NTM); type: cell-based, Mycobacterium fortuitum; conditions: M. fortuitum subsp. Fortuitum da Costa Cruz. ATCC 6841
[7] = test system: M. avium; assay: 45 hr MIC against M. avium (NTM); type: cell-based, Mycobacterium avium; conditions: M. avium Chester ATCC 700898
[8] = test system: M. kansasii Hauduroy ATCC 12478; assay: 45 hr MIC against M. kansasii (NTM), Mueller Hinton broth; type: cell-based, Mycobacterium kansasii
[9] = test system: M. scrofulaceum; assay: 45 hr MIC against M. scrofulaceum (NTM); type: cell-based, Mycobacterium scrofulaceum; conditions: M. scrofulaceum Prissick and Masson ATCC 19981
[10] = test system: Klebsiella pneumoniae; type: cell-based; conditions: for MIC50 / MIC100 / MIC Range: K. pneumoniae isolates (n per peptide in table); for MIC: Klebsiella pneumoniae HM-44, CAA supplemented with human serum
Experimental: (§1) Determination of Minimal Inhibitory Concentrations (MIC).
(§2) Additional MIC testing was performed for several peptides against the ESKAPE pathogens Escherichia coli, Enterobacter cloacae, Klebsiella pneumoniae, and Acinetobacter baumannii, in CAA supplemented with human serum (Table D).

[11] = test system: Enterobacter cloacae; assay: microbe, parasite or virus in culture; type: cell-based; conditions: for MIC: Enterobacter cloacae ATCC 13047, CAA supplemented with human serum
Experimental: as §1, §2

[12] = test system: Escherichia coli; assay: microbe, parasite or virus in culture; type: cell-based; conditions: for MIC: Escherichia coli ATCC 25922, CAA supplemented with human serum
Experimental: as §1, §2

[13] = test system: carbapenem-resistant bacterial strains; assay: organism not typed; type: cell-based
Excerpt: as §1

[14] = test system: S. maltophilia; assay: MIC against S. maltophilia isolates; type: cell-based, Stenotrophomonas maltophilia; conditions: S. maltophilia isolates (n per peptide in table)
Experimental: as §1
In addition to the results discussed above in Example 3, further testing was conducted on several Chp peptides. MIC values were determined against different species, including P. aeruginosa, K. pneumoniae, A. baumannii, E. cloacae, E. coli, and S. maltophilia, and the results are presented below in Tables 40-45, wherein n=number of isolates tested for each species and MIC is measured as μg/mL.

[15] = test system: Pseudomonas aeruginosa; assay: microbe, parasite or virus in culture; type: cell-based; conditions: P. aeruginosa isolates (n per peptide in table)
[16] = test system: Acinetobacter baumannii; assay: microbe, parasite or virus in culture; type: cell-based; conditions: for MIC50 / MIC100 / MIC Range: A. baumannii isolates (n per peptide in table); for MIC: Acinetobacter baumannii ATCC BAA 747, CAA supplemented with human serum
[17] = test system: Mycobacterium tuberculosis strains
Experimental: MIC values for various Chp peptides were determined using the CLSI method for broth microdilution in 96-well microtiter format.
Next, MIC values for various Chp peptides were determined using the CLSI method above for broth microdilution in 96-well microtiter format for two different Mycobacterium tuberculosis strains. The MIC was determined as explained above for the NTM strains.

[18] = carbapenem-resistant isolate PA19
[19] = carbapenem-resistant isolate PA20
[20] = carbapenem-resistant isolate PA21
[21] = carbapenem-resistant isolate PA22
[22] = carbapenem-resistant isolate PA23
[23] = carbapenem-resistant isolate PA24
[24] = carbapenem-resistant isolate WLC-452
[25] = Mycobacterium tuberculosis (Zopf) Lehmann and Neumann ATCC 35817
[26] = Mycobacterium tuberculosis (Zopf) Lehmann and Neumann ATCC 25177
[27] = E. cloacae isolates (n per peptide in table)
[28] = E. coli isolates (n per peptide in table)

Compound	MIC (100% CAA) [2]	45 hr MIC [3]	MIC (μg/mL) against CFS-1292 in 100% CAA (1st run/2nd run) [4]	MIC (μg/mL) against CFS-1292 in CAA + […] human serum [4]	45 hr MIC ([5]; M. smegmatis MC^2 155, Run #1)	45 hr MIC ([5]; M. smegmatis MC^2 155, Run #2)	45 hr MIC [6]	45 hr MIC [7]	45 hr MIC [8]	45 hr MIC [9]	MIC50 [10]	MIC100 [10]	MIC [10]	MIC [11]	MIC [12]	MIC50 [14]	MIC100 [14]	MIC50 [15]	MIC100 [15]	MIC50 [16]	further results
NC[C@H]1O[C@H](O[C@H]2[C@H](O)[C@@H](O[C@H]3O[C@H](CO)[C@@H](O)[C@H](N)[C@H]3O)[C@H](N)C[C@@H]2N)[C@H](N)C[C@@H]1O [Tobra]																					Passage MIC Passage #1 (Untreated) ([1]; Passage #1, MIC of agent on untreated culture): 0.125 µg/mL; Passage MIC Passage #1 ([1]; Passage #1, colonies from spot dilution, duplicates (1),(2)): 0.5 µg/mL; Passage MIC Passage #2 (Untreated) ([1]; Passage #2, MIC of agent on untreated culture): 0.125 µg/mL; Passage MIC Passage #2 ([1]; Passage #2, colonies from spot dilution, duplicates (1),(2)): 0.5 µg/mL; Passage MIC Passage #3 (Untreated) ([1]; Passage #3, MIC of agent on untreated culture): 0.125 µg/mL; Passage MIC Passage #3 ([1]; Passage #3, colonies from spot dilution, duplicates (1),(2)): 0.5 µg/mL; Passage MIC Passage #4 (Untreated) ([1]; Passage #4, MIC of agent on untreated culture): 0.125 µg/mL; Passage MIC Passage #4 ([1]; Passage #4, colonies from spot dilution, duplicates (1),(2)): 0.5 µg/mL; Passage MIC Passage #5 (Untreated) ([1]; Passage #5, MIC of agent on untreated culture): 0.125 µg/mL; Passage MIC Passage #5 ([1]; Passage #5, colonies from spot dilution, duplicates (1),(2)): 1 µg/mL
MRRKKMSRGKSKKLFRRTAKRVHRKNLRARPMRGGIRM [AVQ206]	<0.25	4 µg/mL	0.5 µg/mL	0.25 µg/mL	4 µg/mL	16 µg/mL	2 µg/mL	1 µg/mL	2 µg/mL	4 µg/mL											
MMKYRKKMSAKSSRKQFTKGAMKVKGKNFTKPMRGGIRL [Unp5]	2		2 µg/mL	0.5 µg/mL	8 µg/mL						>8 µg/mL	>8 µg/mL	4 µg/mL	4 µg/mL	1 µg/mL	>8 µg/mL	>8 µg/mL	>8 µg/mL	>8 µg/mL	4 µg/mL	MIC Range [10]: >8 µg/mL; MIC [13, 18]: 8 µg/mL; MIC [13, 19]: >8 µg/mL; MIC [13, 20]: >8 µg/mL; MIC [13, 21]: >8 µg/mL; MIC [13, 22]: >8 µg/mL; MIC [13, 23]: >8 µg/mL; MIC [13, 24]: >8 µg/mL; MIC Range [14]: >8 µg/mL; MIC100 [16]: 8 µg/mL; MIC Range [16]: 1 to 8 µg/mL; MIC [16]: 8 µg/mL
MRPVKRSRVNKARSAGKFRKQVGKTKMANLRSNPMRGGWRL [HH3930]	2	16 µg/mL	2 µg/mL	4 µg/mL	4 µg/mL	16 µg/mL	8 µg/mL	4 µg/mL	32 µg/mL	16 µg/mL											
MRRYNVNKGKSAKKFRKQVSKTKVANLRSNPMRGGWRL [AGT915]	2	>64 µg/mL	2 µg/mL	0.25 µg/mL	4 µg/mL	1 µg/mL	1 µg/mL	>64 µg/mL	1 µg/mL	>64 µg/mL											
MKLTKSDIAYREALGLSTTDPLPAEIGMVTRRANRLKRPRKTARFR [Myo1]		>64 µg/mL	>64 µg/mL		>64 µg/mL	>64 µg/mL	>64 µg/mL	8 µg/mL	>64 µg/mL												MIC [17, 25]: 32 µg/mL
MKPLKRKPVQKARSAAKFRRNVSTVKAANMAVKPMRGGWRF [Fen7875]	4	8 µg/mL	2 µg/mL	2 µg/mL	4 µg/mL	16 µg/mL	8 µg/mL	2 µg/mL	32 µg/mL	16 µg/mL											
MIVRRHKMSRRRSRKLFSKTASRTRSKNLRSRPMRGGYRI [Unp4]		4 µg/mL	2 µg/mL	>16 µg/mL		16 µg/mL	4 µg/mL	1 µg/mL	4 µg/mL	4 µg/mL											MIC [17, 26]: 32 µg/mL; MIC [17, 25]: 16 µg/mL
MAKKIRNKARDRRIFTRTASRMHKANRTPRFMRGGIRL [ALCES1]		2 µg/mL			1 µg/mL	2 µg/mL	4 µg/mL	8 µg/mL	2 µg/mL	2 µg/mL	>8 µg/mL	>8 µg/mL				4 µg/mL	8 µg/mL	>8 µg/mL	>8 µg/mL	2 µg/mL	MIC [17, 26]: 32 µg/mL; MIC [17, 25]: 8 µg/mL; MIC100 [16]: 2 µg/mL; MIC Range [16]: 1 to 2 µg/mL
MRKRMSKRVDKKVFRRTAASAKKINIDPKIYRGGIRL [Osp1]	4		16 µg/mL		32 µg/mL						>8 µg/mL	>8 µg/mL	0.125 µg/mL	32 µg/mL	0.5 µg/mL	>8 µg/mL	>8 µg/mL	>8 µg/mL	>8 µg/mL	8 µg/mL	MIC Range [10]: >8 µg/mL; MIC [13, 18]: >8 µg/mL; MIC [13, 19]: >8 µg/mL; MIC [13, 20]: >8 µg/mL; MIC [13, 21]: >8 µg/mL; MIC [13, 22]: >8 µg/mL; MIC [13, 23]: >8 µg/mL; MIC [13, 24]: 8 µg/mL; MIC Range [14]: >8 µg/mL; MIC Range [15]: >8 µg/mL; MIC100 [16]: 8 µg/mL; MIC Range [16]: 2 to 8 µg/mL; MIC [16]: 32 µg/mL
MARRKKMKGKRDKRVFKQTANKTKAINISPKNMRGGTRL [Unp3]	4		8 µg/mL		32 µg/mL						>8 µg/mL	>8 µg/mL	4 µg/mL	8 µg/mL	0.5 µg/mL	>8 µg/mL	>8 µg/mL	>8 µg/mL	>8 µg/mL	>8 µg/mL	MIC Range [10]: >8 µg/mL; MIC50 [11, 27]: >8 µg/mL; MIC100 [11, 27]: >8 µg/mL; MIC Range [11, 27]: >8 µg/mL; MIC50 [12, 28]: >8 µg/mL; MIC100 [12, 28]: >8 µg/mL; MIC [13, 18]: 8 µg/mL; MIC [13, 19]: >8 µg/mL; MIC [13, 20]: >8 µg/mL; MIC [13, 21]: >8 µg/mL; MIC [13, 22]: >8 µg/mL; MIC [13, 23]: >8 µg/mL; MIC [13, 24]: >8 µg/mL; MIC Range [14]: >8 µg/mL; MIC100 [16]: >8 µg/mL; MIC [16]: 2 µg/mL
MKMRKRTDKRVFTRTAAKSKKVNIAPKIFRGGIRL [Unp1]	4	32 µg/mL	4 µg/mL	4 µg/mL	4 µg/mL	2 µg/mL	8 µg/mL	1 µg/mL	8 µg/mL	8 µg/mL			8 µg/mL	>32 µg/mL	0.5 µg/mL						MIC [16]: 8 µg/mL
